Data: patent EP4800018A1, “PAN-KRAS INHIBITOR AND USE THEREOF IN MEDICINES” (Betta Pharmaceuticals Co., Ltd., priority 2023, dated 2025)
pIC50: −log10 of the molar value. Like-named read-outs stand apart in the source and are kept apart here.

Legend:
Assay type in all cases: cell-based
[1] = test system: KRAS-G12D mutant tumor cells AGS; assay: Cell Proliferation Inhibition Assay (AGS), Cell-titer GLO, 96 h; conditions: read-out: AGS(G12D)
Summary of the method: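 AGS cells (KRAS-G12D) grown in low-attachment plates were exposed to compound for 96 h at 37°C. Viability was read by CellTiter-Glo luminescence and converted to % inhibition against max and blank wells. IC50 came from curve fitting.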

KRAS G12V-cRAF = target: T1, KRAS G12V-cRAF (Homo sapiens, UniProt P01116, G12V); assay: Cellular KRAS G12V-cRAF Binding Inhibition Assay (NanoBRET, AD293 stable cells); conditions: 3 h incubation, read-out: NanoBRET KRAS G12V
T1 construct: expressed in transfected cells
T1 sequence (P01116 1-188 isoform P01116-2 G12V): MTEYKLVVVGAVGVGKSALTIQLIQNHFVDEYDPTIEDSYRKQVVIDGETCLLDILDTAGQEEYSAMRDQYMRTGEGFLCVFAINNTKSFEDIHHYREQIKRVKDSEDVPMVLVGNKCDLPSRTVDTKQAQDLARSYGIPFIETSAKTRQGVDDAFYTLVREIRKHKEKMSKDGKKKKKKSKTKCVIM
Summary of the method: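 Live AD293 stable cells, NanoLuc donor with HaloTag NanoBRET 618 ligand acceptor added overnight. Inhibition percent from luminescence relative to max signal and medium blank; IC50 from curve fitting.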

KRAS G12D-cRAF = target: T2, KRAS G12D-cRAF (Homo sapiens, UniProt P01116, G12D); assay: Cellular KRAS G12D-cRAF Binding Inhibition Assay (NanoBRET, AD293 stable cells); conditions: 3 h incubation, read-out: NanoBRET KRAS G12D
T2 construct: expressed in transfected cells
T2 sequence (P01116 1-188 isoform P01116-2 G12D): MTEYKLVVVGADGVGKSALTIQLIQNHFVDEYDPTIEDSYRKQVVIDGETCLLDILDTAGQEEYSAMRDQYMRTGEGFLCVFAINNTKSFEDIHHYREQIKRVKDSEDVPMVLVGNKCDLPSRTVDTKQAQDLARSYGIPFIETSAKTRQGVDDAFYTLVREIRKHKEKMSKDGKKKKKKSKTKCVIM
Summary of the method: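 AD293 cells stably expressing KRAS G12D-NanoLuc and cRAF RBD-HaloTag were seeded at 1×10^4 cells/well with NanoBRET 618 ligand overnight. BRET signal was converted to % inhibition of binding relative to max and blank wells, and IC50 came from curve fitting.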

[2] = test system: KRAS-G12V mutant tumor cells SW620; assay: Cell Proliferation Inhibition Assay (SW620), Cell-titer GLO, 96 h; conditions: read-out: SW620(G12V)
Summary of the method: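 SW620 cells (1×10^3/well, low-attachment) were exposed to compound from 10000 to 0.03 nM (0.5% DMSO) for 96 h at 37°C. Viability was read by Cell-titer GLO luminescence. Inhibition was calculated relative to DMSO and blank wells, and IC50 obtained by curve fitting.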

[3] = Homo sapiens, AGS, 96 h, AGS cells, 96 h incubation, Cell-titer GLO
[4] = Homo sapiens, SW-620, 96 h, SW620 cells, 96 h incubation, Cell-titer GLO

pIC50 [1, 3] | pIC50 (KRAS G12V-cRAF) | pIC50 (KRAS G12D-cRAF) | pIC50 [2, 4] | pIC50 ([1]; AGS cells, 96 h incubation, Cell-titer GLO) | pIC50 ([2]; SW620 cells, 96 h incubation, Cell-titer GLO) | Compound | pIC50 ([1]; Homo sapiens, AGS, 96 h) | pIC50 ([2]; Homo sapiens, SW-620, 96 h)
8.94 | 8.04 | 8.56 | 9.72 | – | – | CCN1CCN(c2cnc3c(c2)-c2c4c5cc(ccc5n2CCCOC3C)-c2csc(n2)CC(NC(=O)C2CC2C(F)F)C(=O)N2CCCC(N2)C(=O)OCC(C)(C)C4)CC1 [Example 84, (1S,2S)-2-(difluoromethyl)-N-((1^5S,6^3S,4S,Z)-1^2-(4-ethylpiperazin-1-yl)-1^5,10,10-trimethyl-5,7-dioxo-1^8,1^9,6^1,6^2,6^3,6^4,6^5,6^6-octahydro-1^5H,1^7H-8-oxa-1(13,15)-pyrido[3',2':7,8][1,5]oxazonino[5,6-a]indola-2(4,2)-thiazola-6(1,3)-pyridazinacycloundecaphane-4-yl)cyclopropane-1-carboxamide] | – | –
8.58 | 7.64 | 8.18 | 8.99 | – | – | COCCN1CCN(c2cnc3c(c2)-c2c4c5cc(ccc5n2CCCOC3C)-c2csc(n2)CC(NC(=O)C2CC2C)C(=O)N2CCCC(N2)C(=O)OCC(C)(C)C4)CC1 [Example 22, (1S,2S)-N-((1^5S,6^3S,4S,Z)-1^2-(4-(2-methoxyethyl)piperazin-1-yl)-1^5,10,10-trimethyl-5,7-dioxo-1 ^8,1^9,6^1,6^2,6^3,6^4,6^5,6^6-octahydro-1^5H,1^7H-8-oxa-1(13,15)-pyrido[3',2':7,8][1,5]oxazonino[5,6-a]indola-2(4,2)-thiazola-6(1,3)-pyridazinacycloundecaphane-4-yl)-2-methylcyclopropane-1-carboxamide] | – | –
– | 7.97 | 8.62 | – | 8.66 | 9.15 | COC1CCN(c2cnc3c(c2)-c2c4c5cc(ccc5n2CCCOC3C)-c2csc(n2)CC(NC(=O)C2CC2C(F)F)C(=O)N2CCCC(N2)C(=O)OCC(C)(C)C4)C1 [Example 135, (1S,2S)-2-(difluoromethyl)-N-((1^5S,6^3S,4S,Z)-1^2-((R)-3-methoxypyrrolidin-1-yl)-1^5,10,10-trimethyl-5,7-dioxo-1^8, 1^9,6^1 ,6^2,6^3,6^4,6^5 ,6^6-octahydro-1^5H,1^7H-8-oxa-1(13,15)-pyrido[3',2':7,8][1,5]oxazonino[5,6-a]indola-2(4,2)-thiazola-6(1,3)-pyridazinacycloundecaphane-4-yl)cyclopropane-1-car boxamide] | – | –
8.92 | 7.96 | 8.66 | 9.77 | – | – | CC1OCCCn2c(c3c4cc(ccc42)-c2csc(n2)CC(NC(=O)C2CC2C(F)F)C(=O)N2CCCC(N2)C(=O)OCC(C)(C)C3)-c2cc(N3CCN(C(C)C)CC3)cnc21 [Example 86, (1S,2S)-2-(difluoromethyl)-N-((1^5S,6^3S,4S,Z)-1^2-(4-isopropylpiperazin-1-yl)-1^5,10,10-trimethyl-5,7-dioxo-1^8,1^9,6^1,6^2,6^3,6^4,6^5,6^6-octahydro-1^5H,1^7H-8-oxa-1(13,15)-pyrido[3',2':7,8][1,5]oxazonino[5,6-a]indola-2(4,2)-thiazola-6(1,3)-pyridazinacycloundecaphane-4-yl)cyclopropane-1-carbox amide] | – | –
7.88 | 7.21 | 7.83 | 8.41 | – | – | CC1OCCCn2c(c3c4cc(ccc42)-c2csc(n2)CC(NC(=O)C24CC(C)(C2)C4)C(=O)N2CCCC(N2)C(=O)OCC(C)(C)C3)-c2cc(N3CCN(CC(F)F)CC3)cnc21 [Example 98, N-((1^5S,6^3S,4S,Z)-1^2-(4-(2,2-difluoroethyl)piperazin-1-yl)-1^5,10,10-trimethyl-5,7-dioxo-1^8,1^9,6^1, 6^2,6^3,6^4,6^5,6^6-octahydro-1^5H,1^7H-8-oxa-1(13,15)-pyrido[3',2':7,8][1,5]oxazonino[5,6-a]indola-2(4,2)-thiazola-6(1,3)-pyridazinacycloundecaphane-4-yl)-3-methylbicyclo[1.1.1]pentane-1-carbox amide] | – | –
8.85 | 7.92 | 8.56 | 9.59 | – | – | COCCN1CCN(c2cnc3c(c2)-c2c4c5cc(ccc5n2CCCOC3C)-c2csc(n2)CC(NC(=O)C2CC2C(F)F)C(=O)N2CCCC(N2)C(=O)OCC(C)(C)C4)CC1 [Example 101, (1S,2S)-2-(difluoromethyl)-N-((1^5S,6^3S,4S,Z)-1^2-(4-(2-methoxyethyl)piperazin-1-yl)-1^5,10,10-trimethyl-5,7-dioxo-1^8,1^9,6^1,6^2,6^3,6^4,6^5,6^6-octahydro-1^5H,1^7H-8-oxa-1(13,15)-pyrido[3',2':7,8][1,5]oxazonino[5,6-a]indola-2(4,2)-thiazola-6(1,3)-pyridazinacycloundecaphane-4-yl)cyclopropane-1-carboxamide] | – | –
9.24 | 8.30 | 9.00 | 9.96 | – | – | CC1OCCCn2c(c3c4cc(ccc42)-c2csc(n2)CC(NC(=O)C2C(C)C2C)C(=O)N2CCCC(N2)C(=O)OCC(C)(C)C3)-c2cc(OCCN3CCOCC3)cnc21 [Example 158, (1r,2R,3S)-2,3-dimethyl-N-((1^5S,6^3S,4S,Z)-1^5,10,10-trimethyl-1^2-(2-morpholinoethoxy)-5,7-dioxo-1^8,1^9,6^1,6^26^3,6^4,6^5,6^6-octahydro-1^5H,1^7H-8-oxa-1(13,15)-pyrido[3',2':7,8][1,5]oxazonino[5,6-a]indola-2(4,2)-thiazola-6(1,3)-pyridazinacycloundecaphane-4-yl)cyclopropane-1-carboxamide] | – | –
8.80 | 7.83 | 8.49 | 9.20 | – | – | CC1OCCCn2c(c3c4cc(ccc42)-c2csc(n2)CC(NC(=O)C2CC2C(F)F)C(=O)N2CCCC(N2)C(=O)OCC(C)(C)C3)-c2cc(N3CCN(C)C(C)C3)cnc21 [Example 138, (1S,2S)-2-(difluoromethyl)-N-((1^5S,6^3S,4S,Z)-1^2-((R)-3,4-dimethylpiperazin-1-yl)-1^5,10,10-trimethyl-5,7-dioxo-1^8,1^9,6^1,6^2,6^3,6^4,6^5,6^6-octahydro-1^5H,1^7H-8-oxa-1(13,15)-pyrido[3',2':7,8][1,5]oxazonino[5,6-a]indola-2(4,2)-thiazola-6(1,3)-pyridazinacycloundecaphane-4-yl)cyclopropane-1-carboxamide] | – | –
7.65 | 7.21 | 7.80 | 8.37 | – | – | CC1OCCCn2c(c3c4cc(ccc42)-c2csc(n2)CC(NC(=O)C24CC(C)(C2)C4)C(=O)N2CCCC(N2)C(=O)OCC(C)(C)C3)-c2cc(N3CCN(C4CC4)CC3)cnc21 [Example 40, N-((1^5S,6^3S,4S,Z)-1^2-(4-cyclopropylpiperazin-1-yl)-1^5,10,10-trimethyl-5,7-dioxo-1^8,1^9,6^1,6^2,6^3,6 ^4,6^5,6^6-octahydro-1^5H,1^7H-8-oxa-1(13,15)-pyrido[3',2':7,8][1,5]oxazonino[5,6-a]indola-2(4,2)-thiazola-6(1,3)-pyridazinacycloundecaphane-4-yl)-3-methylbicyclo[1.1.1]pentane-1-carboxamide] | – | –
9.68 | 8.42 | 9.42 | 10.22 | – | – | CCN1CCN(c2cnc3c(c2)-c2c4c5cc(ccc5n2CCCOC3C)-c2csc(n2)CC(NC(=O)C2C(C)C2C)C(=O)N2CCCC(N2)C(=O)OCC(C)(C)C4)CC1 [Example 159, (1r,2R,3S)-N-((1^5S,6^3S,4S,Z)-1^2-(4-ethylpiperazin-1-yl)-1^5,10,10-trimethyl-5,7-dioxo-1^8,1^9,6^1,6^2 ,6^3,6^4,6^5,6^6-octahydro-1^5H,1^7H-8-oxa-1(13,15)-pyrido[3',2':7,8][1,5]oxazonino[5,6-a]indola-2(4, 2)-thiazola-6(1,3)-pyridazinacycloundecaphane-4-yl)-2,3-dimethylcyclopropane-1-carboxamide] | – | –

Compound | pIC50 [1, 3] | pIC50 (KRAS G12V-cRAF) | pIC50 (KRAS G12D-cRAF) | pIC50 [2, 4] | pIC50 ([1]; AGS cells, 96 h incubation, Cell-titer GLO) | pIC50 ([2]; SW620 cells, 96 h incubation, Cell-titer GLO) | pIC50 ([1]; Homo sapiens, AGS, 96 h) | pIC50 ([2]; Homo sapiens, SW-620, 96 h)
CC1OCCCn2c(c3c4cc(ccc42)-c2csc(n2)CC(NC(=O)C2CC2C(F)F)C(=O)N2CCCC(N2)C(=O)OCC(C)(C)C3)-c2cc(N3CC(N4CCN(C)CC4)C3)cnc21 [Example 99, (1S,2S)-2-(difluoromethyl)-N-((1^5S,6^3S,4S,Z)-1^5,10,10-trimethyl-1^2-(3-(4-methylpiperazin-1-yl)azetidin-1-yl)-5,7-dioxo-1^8,1^9,6^1,6^2,6^3,6^4,6^5,6^6-octahydro-1^5H,1^7H-8-oxa-1(13,15)-pyrido[3',2':7, 8][1,5]oxazonino[5,6-a]indola-2(4,2)-thiazola-6(1,3)-pyridazinacycloundecaphane-4-yl)cyclopro pane-1-carboxamide] | – | 7.88 | 8.37 | – | – | – | 9.13 | 9.85
